Values of other authors as cited in article PMC9091901 (Journal of Pharmaceutical Analysis, 2021).

Conditions: octanol-water partition coefficient; ref DrugBank database

Structure (SMILES)	log P
O=c1[nH]c2ccccc2n1CCCN1CCC(n2c(=O)[nH]c3cc(Cl)ccc32)CC1 [Domperidone]	3.90
CCN(CC)Cc1cc(Nc2ccnc3cc(Cl)ccc23)ccc1O [Amodiaquine]	3.70
CN1C(=O)NC(=O)C(C)(C2=CCCCC2)C1=O (centres unmarked) [Hexobarbital]	1.98
CC(C)(C)c1cc(O)ccc1O [Tert-butylhydroquinone]	2.91
CCOC(=O)C1=C(C)NC(C)=C(C(=O)OC)C1c1cccc([N+](=O)[O-])c1 (centres unmarked) [Nitrendipine]	2.88
CCN(CC)CCOC(=O)c1ccc(N)cc1 [Procaine]	2.14
NCC[C@H](O)C(=O)N[C@@H]1C[C@H](N)[C@@H](O[C@H]2O[C@H](CN)[C@@H](O)[C@H](O)[C@H]2O)[C@H](O)[C@H]1O[C@H]1O[C@H](CO)[C@@H](O)[C@H](N)[C@H]1O [Amikacin]	−3.20
CC(C)NCC(O)c1ccc(NS(C)(=O)=O)cc1 (centres unmarked) [Sotalol]	−0.40
CC1Cc2ccccc2N1NC(=O)c1ccc(Cl)c(S(N)(=O)=O)c1 (centres unmarked) [Indapamide]	2.52
CC(COc1ccccc1)N(CCCl)Cc1ccccc1 (centres unmarked) [Phenoxybenzamine]	4.70
O=C(O)c1cccc(C(=O)O)n1 [2,6-pyridinedicarboxylic acid]	−0.44
CCOC(=O)C(C)(C)Oc1ccc(Cl)cc1 [Clofibrate]	3.30
CC(C)(N)Cc1ccc(Cl)cc1 [Chlorphentermine]	2.60
O=c1cc(O)c2ccccc2o1 [4-hydroxycoumarin]	1.01
